From patent US9133129B2, “Bicyclic compound” (TAKEDA PHARMACEUTICAL COMPANY LIMITED, priority 2011, dated 2015)

Tests used:
human ACC2 = biological target: T1, human ACC2 (Homo sapiens, UniProt O00763); experiment: ACC2 inhibitory activity, malachite green assay with recombinant ACC2 (Nd); type: biochemical; settings: for inhibition at 10 µM: 10 μM of the test compound, read-out: ACC2 inhibitory rates (%) at 10 μM
T1 construct: made in house; host or cells: SF-9 insect cells, recombinant baculovirus BAC-ACC2 (Nd)
Procedure: The ACC2 inhibitory action of the compound of the present invention was evaluated by the following method.
(1) Cloning of Human ACC2 Gene and Preparation of Recombinant Baculovirus
Human ACC2 gene was cloned by PCR using a human skeletal muscle cDNA library (Clontech) as a template and Primer 1 and Primer 2 shown below. Primer 1 and Primer 2 were prepared by adding SalI, XbaI restriction enzyme recognition sequences based on the information of the base sequence of human ACC2 gene (Genbank Accession U89344).
(§1) PCR was performed using Pyrobest DNA polymerase (TAKARA BIO INC.). The obtained PCR product was cloned to pT7 Blue vector (Novagen) and after confirmation of the base sequence, digested with restriction enzymes SalI and XbaI. The obtained DNA fragment was inserted into pFAST-BacHTa (Invitrogen) digested with restriction enzymes SalI and XbaI to give expression plasmid ACC2/pFAST-BacHTa.
A plasmid for expression of ACC2 without a mitochondrial targeting sequence was prepared by PCR using the expression plasmid as a template, and Primer 3 (SalI restriction enzyme recognition sequence was added) and Primer 4, which are prepared by reference to the information of human ACC2 gene base sequence (Genbank Accession U89344).
as §1, with “Pyrobest-DNA” for “Pyrobest DNA”, “AflII.” for “XbaI.”, “ACC2/pFAST-BacHTa” for “pFAST-BacHTa (Invitrogen)”, “AflII” for “XbaI”, “ACC2mito7/pFAST-BacHTa.” for “ACC2/pFAST-BacHTa.”
Using the expression plasmid ACC2mito7/pFAST-BacHTa and BAC-TO-BAC Baculovirus Expression System (Invitrogen), virus stock BAC-ACC2 of recombinant Baculovirus (N terminal deleted (hereinafter Nd)) was prepared.
(2) Preparation of ACC2 (Nd) Protein
SF-9 cells (Invitrogen) were inoculated to a medium (10 L) for insect cells (Sf-900IISFM medium (Invitrogen) containing 5% fetal bovine serum (Trace), 50 mg/L Gentamicin (Wako), 0.1% Pluronic F-68 (Invitrogen)) at 1.0×10^6 cells/mL, and cultured with shaking in Wave Bioreactor (GE Health Care) at 27° C., 20 rpm, rocking angle 10°, oxygen concentration 30%.
On day 2 of the culture, recombinant Baculovirus BAC-ACC2 (Nd) was added, and the cells were cultured for 3 days. The culture medium was centrifuged at 1000×g for 10 min to give virus-infected cells. The cells were washed with phosphate buffered saline (Invitrogen) and centrifuged under the same conditions. The obtained cells were cryopreserved at −80° C.
The cryopreserved cells were thawed in ice and suspended in 900 mL of 25 mM HEPES buffer (pH 7.5) containing 10% Glycerol, 0.3 M NaCl, 1 mM EDTA, 25 mM Sodium β-Glycerophosphate and 1 mM Sodium Orthovanadate, and supplemented with Complete Protease Inhibitor (Roche). The obtained suspension was homogenized three times in a polytron homogenizer (Kinematica) at 20,000 rpm for 30 sec. The obtained cell disruption solution was clarified by centrifugation at 186000×g for 60 min. To the supernatant was added 5 mL of AF-chelate 650M Ni chelated carrier (TOSOH), and the mixture was rotated at 4° C. for 1 hr, and centrifuged at 1000×g for 5 min, and the carrier was transferred to opened column. The column was washed with 50 mL of buffer A (50 mM HEPES (pH 7.5) containing 0.3 M NaCl), further washed with buffer A containing 20 mM Imidazole, and eluted with buffer A containing 250 mM Imidazole. The eluate was concentrated with Amicon Ultra 15 (Millipore) with a molecular weight cut off of 50K. The obtained concentrate was filtered using gelfiltration column (HiLoad 26/60 Superdex200 prep grade) (GE Health Care) with 50 mM HEPES buffer (pH 7.5) containing 10 mM MgCl2, 2 mM Dithiothreitol, 10 mM Tripotassium Citrate and 0.3 M NaCl to give ACC2 (Nd). The obtained ACC2 (Nd) was cryopreserved at −80° C.
(3) Measurement of ACC2 Inhibitory Activity […]

T1 sequence (O00763 117-2458 limits assumed): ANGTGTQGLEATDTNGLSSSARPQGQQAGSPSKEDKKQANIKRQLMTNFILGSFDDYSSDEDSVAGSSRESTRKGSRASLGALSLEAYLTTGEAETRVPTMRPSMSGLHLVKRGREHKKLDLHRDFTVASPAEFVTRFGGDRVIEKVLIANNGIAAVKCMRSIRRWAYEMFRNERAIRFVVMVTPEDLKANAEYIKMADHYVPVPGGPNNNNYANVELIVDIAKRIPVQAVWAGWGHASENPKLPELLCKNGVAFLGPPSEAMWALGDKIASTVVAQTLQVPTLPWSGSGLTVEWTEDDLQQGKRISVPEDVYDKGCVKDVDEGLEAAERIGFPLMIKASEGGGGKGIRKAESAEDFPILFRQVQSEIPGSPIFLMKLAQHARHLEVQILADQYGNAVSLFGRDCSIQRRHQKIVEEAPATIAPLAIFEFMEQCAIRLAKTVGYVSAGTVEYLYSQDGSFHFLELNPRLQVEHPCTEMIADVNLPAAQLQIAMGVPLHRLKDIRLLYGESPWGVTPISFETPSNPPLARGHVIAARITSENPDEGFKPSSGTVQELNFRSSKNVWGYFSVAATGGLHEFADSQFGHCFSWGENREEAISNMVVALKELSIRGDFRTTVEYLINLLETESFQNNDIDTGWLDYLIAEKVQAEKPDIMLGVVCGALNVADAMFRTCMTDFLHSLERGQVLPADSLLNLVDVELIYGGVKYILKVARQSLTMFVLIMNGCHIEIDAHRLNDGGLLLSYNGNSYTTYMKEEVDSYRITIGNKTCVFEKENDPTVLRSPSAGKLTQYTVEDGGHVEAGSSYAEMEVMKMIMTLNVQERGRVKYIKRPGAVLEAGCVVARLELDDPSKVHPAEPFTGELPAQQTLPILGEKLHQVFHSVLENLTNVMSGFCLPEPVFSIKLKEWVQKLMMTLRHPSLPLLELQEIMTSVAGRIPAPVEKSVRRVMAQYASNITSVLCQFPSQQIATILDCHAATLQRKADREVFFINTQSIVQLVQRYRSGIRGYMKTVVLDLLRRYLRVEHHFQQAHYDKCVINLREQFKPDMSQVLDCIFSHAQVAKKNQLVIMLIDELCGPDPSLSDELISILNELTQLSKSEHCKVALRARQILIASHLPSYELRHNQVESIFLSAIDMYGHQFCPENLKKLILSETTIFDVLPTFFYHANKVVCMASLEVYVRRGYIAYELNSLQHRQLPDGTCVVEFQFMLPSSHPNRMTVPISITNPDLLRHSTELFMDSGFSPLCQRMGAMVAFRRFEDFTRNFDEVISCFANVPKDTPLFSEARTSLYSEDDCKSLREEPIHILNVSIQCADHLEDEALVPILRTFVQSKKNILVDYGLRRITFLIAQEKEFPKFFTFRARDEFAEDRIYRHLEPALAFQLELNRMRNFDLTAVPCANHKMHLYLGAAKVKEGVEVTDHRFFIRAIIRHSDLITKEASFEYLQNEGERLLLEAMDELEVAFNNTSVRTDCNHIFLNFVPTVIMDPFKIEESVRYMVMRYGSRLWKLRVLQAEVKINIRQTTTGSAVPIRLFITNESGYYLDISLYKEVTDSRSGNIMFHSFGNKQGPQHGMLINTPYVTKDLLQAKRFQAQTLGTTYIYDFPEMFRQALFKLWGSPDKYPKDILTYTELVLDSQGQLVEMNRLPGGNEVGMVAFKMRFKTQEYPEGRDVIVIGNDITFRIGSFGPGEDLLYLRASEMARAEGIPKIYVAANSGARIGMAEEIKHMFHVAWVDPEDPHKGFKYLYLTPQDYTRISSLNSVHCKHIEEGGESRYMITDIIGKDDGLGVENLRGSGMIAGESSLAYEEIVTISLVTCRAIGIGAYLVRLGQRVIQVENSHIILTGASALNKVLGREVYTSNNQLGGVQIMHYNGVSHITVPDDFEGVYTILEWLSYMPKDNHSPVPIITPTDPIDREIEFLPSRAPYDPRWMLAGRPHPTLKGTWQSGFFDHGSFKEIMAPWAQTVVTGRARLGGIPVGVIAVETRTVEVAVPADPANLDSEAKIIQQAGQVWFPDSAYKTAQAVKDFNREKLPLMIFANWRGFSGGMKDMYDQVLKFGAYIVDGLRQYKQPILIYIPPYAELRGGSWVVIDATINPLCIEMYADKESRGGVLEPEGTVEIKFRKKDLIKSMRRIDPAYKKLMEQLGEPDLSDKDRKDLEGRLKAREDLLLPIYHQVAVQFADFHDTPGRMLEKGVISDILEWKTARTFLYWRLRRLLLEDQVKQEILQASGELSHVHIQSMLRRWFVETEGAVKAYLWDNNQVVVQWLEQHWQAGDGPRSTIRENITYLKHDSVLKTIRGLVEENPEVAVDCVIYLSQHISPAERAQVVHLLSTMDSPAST

inhibition at 10 µM (human ACC2)	melting point	inhibition at 1 µM (human ACC2; 1 μM of the test compound, read-out: ACC2 inhibitory rates (%) at 1 μM)	SMILES
95%	174 °C	–	CC(=O)N[C@@H](C)COc1ccc2nc(-c3ccc(OCC4CC4)c(F)c3)oc2c1 [Example 1, N-((2S)-1-((2-(4-(cyclopropylmethoxy)-3-fluorophenyl)-1,3-benzoxazol-6-yl)oxy)propan-2-yl)acetamide]
–	204.6 to 204.7 °C	98%	CC(=O)N[C@@H](C)COc1cc2oc(-c3ccc(OC[C@H]4CC4(F)F)cc3)nc2cn1 [Example 68, N-((2S)-1-((2-(4-(((1R)-2,2-difluorocyclopropyl)methoxy)phenyl) [1,3]oxazolo[4,5-c]pyridin-6-yl)oxy)propan-2-yl)acetamide]
85%	199.8 to 199.9 °C	–	CC(=O)N[C@@H](C)COc1cc2oc(-c3cc(F)c(OCC4CC4)cc3F)nc2cn1 [Example 48, N-((2S)-1-((2-(4-(cyclopropylmethoxy)-2,5-difluorophenyl)[1,3]oxazolo[4,5-c]pyridin-6-yl)oxy)propan-2-yl)acetamide]
